Data: paper PMC6017704 (Molecules : A Journal of Synthetic Chemistry and Natural …, 2018)

Key:
[1] = tested on: human umbilical vein endothelial cells (PUMC-HUVEC-T1); assay: HUVEC cell anti-proliferation assay (MTT); type: cell-based; details: for viability at 1 µM / viability at 10 µM / IC50: Homo sapiens, 72 h, MTT; for viability at 1 µM / viability at 10 µM: read-out: Relative Cell Viability (%) ± SD (n = 3); for viability at 10 µM / inhibition ratio in HUVEC: 10 µM; for IC50: n = 3, read-out: IC50, HUVEC relative cell viability
Description: A major mediator of VEGF-driven responses in endothelial cells is VEGFR-2, which is considered to play a decisive role in both physiologic and pathologic angiogenesis. The homogeneous time-resolved fluorescence (HTRF) method was used in the assay that determined the inhibitory activities of target compounds against VEGFR-2 kinase. Owing to VEGFR-2 overexpression in human umbilical vein endothelial cells (HUVEC), these target compounds were further evaluated in vitro anti-proliferation activity against HUVEC. MTT assay was used in the cell assay. […] In order to ensure the repeatability of the activity test, we choose to complete biological evaluation under the dark condition.
SV40T transforms human umbilical vein endothelial cells (PUMC-HUVEC-T1) were gifts from Dr. Lihua Ding (Institute of Biotechnology, Beijing, China). MTT Cell Proliferation and Cytotoxicity Assay Kit (#GK-5605, Genview) was used to measure cell viability and proliferation. Metabolically active cells in part by the action of dehydrogenase enzymes reduced the yellow tetrazolium MTT to generate purple reducing equivalents such as NADH and NADPH. The resulting intracellular purple formazan can be solubilized and quantified by spectrophotometer.
For MTT assay, cells were seeded into separate 96-well plates at 5000 cells/well and cultured in an incubator containing 5% CO2 at 37 °C for 24 h. Subsequently, target compounds were dissolved into different concentrations with culture medium from 10 mM stock solutions in DMSO, respectively. Then target compounds were added and incubated at 37 °C for 72 h. All assays were performed in triplicate. The untreated groups were used as a vehicle of control. Following the 72-h incubation, discarded culture medium and washed with PBS once time followed by adding 180 µL of fresh culture medium. Cell viability was quantified with MTT assay. According to the manufacturer instructions, 20 µL of MTT solution that was previously thawed and equilibrated to room temperature was added to each well and plates were incubated at 37 °C for 4 h. Termination of culture, the supernatant was carefully discarded and added 150 µL of Formazan dissolution for 10 min vibration at room temperature. The OD value of each well was measured by a spectrophotometer at 490 nm and the inhibitory rates expressed as percentages of the vehicle control (100%). Data processing: ratio = Vsample/Vcontrol × 100%. Vsample is for compound treatment group while Vcontrol is for solvent control group. The GraphPad Prism 5.0 software was used to draw nonlinear regression model and calculated IC50 values.

VEGFR-2 (KDR) kinase = molecular target: T1, VEGFR-2 (KDR) kinase (Homo sapiens, UniProt P35968); assay: VEGFR-2 kinase assay (HTRF KinEASE-TK); type: biochemical; details: for IC50: HTRF, ATP 3 µM, 40 min, dark condition, n = 3
T1 construct: purchased Carna Biosciences
T1 sequence (P35968 20-1356): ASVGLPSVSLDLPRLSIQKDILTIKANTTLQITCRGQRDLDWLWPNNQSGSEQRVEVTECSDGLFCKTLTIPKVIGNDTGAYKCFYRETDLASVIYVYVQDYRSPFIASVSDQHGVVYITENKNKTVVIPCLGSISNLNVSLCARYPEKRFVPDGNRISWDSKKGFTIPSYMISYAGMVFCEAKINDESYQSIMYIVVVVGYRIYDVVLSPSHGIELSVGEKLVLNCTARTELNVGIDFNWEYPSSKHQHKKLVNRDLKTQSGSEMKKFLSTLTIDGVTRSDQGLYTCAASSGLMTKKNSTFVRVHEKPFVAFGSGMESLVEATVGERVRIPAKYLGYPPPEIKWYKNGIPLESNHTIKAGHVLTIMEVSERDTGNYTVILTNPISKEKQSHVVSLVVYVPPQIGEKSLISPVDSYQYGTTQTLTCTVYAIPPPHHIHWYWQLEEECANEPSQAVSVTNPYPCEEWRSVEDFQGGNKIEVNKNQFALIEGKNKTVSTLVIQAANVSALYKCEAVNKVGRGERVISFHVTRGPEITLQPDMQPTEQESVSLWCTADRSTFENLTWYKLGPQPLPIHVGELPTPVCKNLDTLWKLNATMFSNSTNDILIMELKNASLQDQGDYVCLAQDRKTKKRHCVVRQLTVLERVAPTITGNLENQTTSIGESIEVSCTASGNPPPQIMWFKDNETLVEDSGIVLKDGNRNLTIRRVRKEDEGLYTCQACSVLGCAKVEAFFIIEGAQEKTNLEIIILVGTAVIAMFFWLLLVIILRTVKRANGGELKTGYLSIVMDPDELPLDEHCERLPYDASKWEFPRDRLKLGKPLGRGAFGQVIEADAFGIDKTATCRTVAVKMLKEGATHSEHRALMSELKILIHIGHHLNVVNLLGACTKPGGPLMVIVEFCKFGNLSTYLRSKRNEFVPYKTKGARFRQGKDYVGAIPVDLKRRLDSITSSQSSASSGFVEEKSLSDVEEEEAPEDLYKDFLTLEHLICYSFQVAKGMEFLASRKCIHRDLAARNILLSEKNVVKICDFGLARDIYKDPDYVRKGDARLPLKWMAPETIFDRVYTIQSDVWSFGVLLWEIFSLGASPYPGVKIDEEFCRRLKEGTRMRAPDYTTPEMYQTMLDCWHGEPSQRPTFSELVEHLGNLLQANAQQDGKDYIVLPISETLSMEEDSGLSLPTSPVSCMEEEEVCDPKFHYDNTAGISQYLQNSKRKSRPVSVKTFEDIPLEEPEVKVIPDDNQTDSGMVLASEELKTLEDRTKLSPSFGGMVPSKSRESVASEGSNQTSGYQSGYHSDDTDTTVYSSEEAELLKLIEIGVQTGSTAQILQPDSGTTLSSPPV

IC50 (VEGFR-2 (KDR) kinase) [nM]	increase of VEGFR-2 activity compared with TM2 (VEGFR-2 (KDR) kinase; relative to TM2)	SMILES	viability at 1 µM [1] [%]	viability at 10 µM [1] [%]	inhibition ratio in HUVEC [1]	IC50 [1] [nM]
195 ± 1.11	more than ten times	CNC(=O)c1ccccc1Sc1ccc2c(N=Nc3ccc(N)cc3OC)n[nH]c2c1 [TM3, 2-(3-((4-amino-2-methoxyphenyl)diazenyl)-1H-indazol-6-ylthio)-N-methylbenzamide]	125 ± 8.92	84.1 ± 6.83	≤ 20%	
123 ± 1.08		CNC(=O)c1ccccc1Sc1ccc2c(N=Nc3ccc[nH]3)n[nH]c2c1 [TM7, 2-(3-((1H-pyrrol-2-yl)diazenyl)-1H-indazol-6-ylthio)-N-methylbenzamide]	84.4 ± 4.35	39.1 ± 2.49	exceeding 60%	5730
158 ± 1.14		CNC(=O)c1ccccc1Sc1ccc2c(N=Nc3cc(C)n(C)c3C)n[nH]c2c1 [TM8, N-methyl-2-(3-((1,2,5-trimethyl-1H-pyrrol-3-yl)diazenyl)-1H-indazol-6-ylthio)benzamide]	92.3 ± 9.05	61.3 ± 10.9		
201 ± 1.26		CNC(=O)c1ccccc1Sc1ccc2c(N=Nc3[nH]c(C)cc3C)n[nH]c2c1 [TM9, 2-(3-((3,5-dimethyl-1H-pyrrol-2-yl)diazenyl)-1H-indazol-6-ylthio)-N-methylbenzamide]	68.54 ± 0.29	32.2 ± 1.99		2180
44 ± 1.15		CNC(=O)c1ccccc1Sc1ccc2c(N=Nc3cc(C)[nH]c3C)n[nH]c2c1 [TM10, 2-(3-((2,5-dimethyl-1H-pyrrol-3-yl)diazenyl)-1H-indazol-6-ylthio)-N-methylbenzamide]	99.29 ± 0.78	66.2 ± 4.43		

More lines, now with the values behind:

SMILES	IC50 (VEGFR-2 (KDR) kinase) [nM]	increase of VEGFR-2 activity compared with TM2 (VEGFR-2 (KDR) kinase; relative to TM2)	viability at 1 µM [1] [%]	viability at 10 µM [1] [%]	inhibition ratio in HUVEC [1]	IC50 [1] [nM]
CNC(=O)c1ccccc1Sc1ccc2c(/C=C/c3ccccn3)n[nH]c2c1 [Axitinib, reference compound]			80 ± 6.64	53.2 ± 9.11		
CNC(=O)c1ccccc1Sc1ccc2c(N=Nc3c(OC)cc(N)cc3OC)n[nH]c2c1 [TM2, 2-(3-((4-amino-2,6-dimethoxyphenyl)diazenyl)-1H-indazol-6-ylthio)-N-methylbenzamide]			107 ± 1.29	94.4 ± 5.01	≤ 20%	
CNC(=O)c1ccccc1Sc1ccc2c(N=Nc3ccc(N(C)C)cc3)n[nH]c2c1 [TM4, 2-(3-((4-(dimethylamino)phenyl)diazenyl)-1H-indazol-6-ylthio)-N-methylbenzamide]	135 ± 1.25		94.1 ± 1.89	82.8 ± 5.32	≤ 20%	
CNC(=O)c1ccccc1Sc1ccc2c(N=Nc3cccn3C)n[nH]c2c1 [TM6, N-methyl-2-(3-((1-methyl-1H-pyrrol-2-yl)diazenyl)-1H-indazol-6-ylthio)benzamide]	2290 ± 1.17		97 ± 10.4	19.3 ± 3.82	exceeding 60%	5030
CNC(=O)c1ccccc1Sc1ccc2c(N=Nc3ccc(C)[nH]3)n[nH]c2c1 [TM11, N-methyl-2-(3-((5-methyl-1H-pyrrol-2-yl)diazenyl)-1H-indazol-6-ylthio)benzamide]	330 ± 1.14		67.03 ± 0.19	31 ± 0.61	exceeding 60%	2150
